These results are taken from patent US8614220B2, “Substituted pyrazolo-quinazoline derivatives, process for their preparation and their use as kinase inhibitors” (priority 2006, dated 2013).

The test system of this experiment is A2780 human ovarian cancer cells. Kind of experiment: In vitro cell proliferation assay (CellTiter-Glo, 72 hours). It counts as cell-based. Here is the method: In Vitro Cell Proliferation Assay
A2780 human ovarian and MCF7 human breast cancer cells (1250 cells/well) were seeded in white 384 well-plates in complete medium (RPMI1640 or EMEM plus 10% Fetal bovine serum) and treated with compounds dissolved in 0.1% DMSO, 24 h after seeding. The cells were incubated at 37° C. and 5% CO2 and after 72 hours the plates were processed using CellTiter-Glo assay (Promega) following the manufacturer's instruction.
CellTiter-Glo is a homogenous method based on the quantification of the ATP present, an indicator of metabolitically active cells. ATP is quantified using a system based on luciferase and D-luciferin resulting into light generation. The luminescent signal is proportional to the number of cells present in culture.
Briefly 25 microL/well reagent solution are added to each wells and after 5 minutes shacking microplates are red by a luminometer. The luminescent signal is proportional to the number of cells present in culture.
The compound `NC(=O)c1nn(CCF)c2c1CCc1cnc(Nc3ccccc3OC(F)(F)F)nc1-2` [Code A45B2C1Z] registered an IC50 of 500 nM.
The value for `COc1ccc(CO)cc1Nc1ncc2c(n1)-c1c(c(C(N)=O)nn1C)CC2` [Code A47B1C1Z] was 147 nM; that for `CN(C)CCCN1CCN(c2ccc(OC(F)(F)F)c(Nc3ncc4c(n3)-c3c(c(C(N)=O)nn3C)CC4)c2)CC1` [Code A101B1C1Z] was 520 nM.
The value for `Cc1ccc(N2CCN(C)CC2)cc1Nc1ncc2c(n1)-c1c(c(C(=O)O)nn1C)CC2` [Code A98B1C3Z] was 1300 nM.
